Assay results from US20050214285A1, “Epitopes or mimotopes derived from the C-epsilon-3 or C-epsilon-4 domains of IgE, antagonists thereof, and their therapeutic uses” (SmithKline Beecham Biologicals, s.a. and Peptide …, priority 1999, published 2005).
Positions of bridges follow the written chain, without caps; N, C: chain ends. No end group written: not given here.

Columns and labels:
[1] = test system: PTmAb0005; assay: Phage display ranking of peptide ligands for PTmAb0005; assay type: binding; conditions: for PTmAb Rank 0005: IgEC67 mutants (Table 8); for Rank (ECL) PTmAb0005: primary phage display biopannings (Table 6)
Method: (§1) Phage display libraries were used to map the binding sites of the monoclonal antibodies using three different phage libraries, displaying either the XCX15, XCX10 or XAX10 peptide sequence (where X is any amino acid) at the N-terminus of the phage gVIIIp. Tables 6 and 7 show the results of selecting for peptide ligands with the anti human IgE monoclonal antibodies […]. […]
This was performed by introducing random mutations by PCR mutagenesis and sub-cloning into the Fuse 5 vector for minor filamentous phage protein gIIIp display. These, and other results, confirmed the importance of the amino acids within IgEC67 which aligned with the Cε2 epitope. […] Mutations in other sites had little effect on the affinity to PTmAb0005.
(§2) This involved a DNA sub-cloning transfer from the major coat protein (gVIIIp) filamentous phage display vector to a lower copy number minor phage coat protein (gIIIp) display vector with a random PCR step. […] Included in the tables are ranking orders and also BIAcore affinities where available.

[2] = test system: PTmAb0011; assay: Phage display ranking of peptide ligands for PTmAb0011; assay type: binding, mouse; conditions: IgEC67 mutants (Table 8)
Description: as §1, §2

[3] = test system: PTmAb0011; assay: BIAcore affinity to PTmAb0011; assay type: binding, mouse; conditions: for Kd: read-out: PTmAb BIAcore KD^Rel (μM) PTmAb0011
Description: as §2
(§3) Thus indicating the importance of correct presentation of the peptides of the present invention to adopt a shape which closely resembles the native target in the context of the whole IgE molecule. [drawing]

[4] = test system: PTmAb0005; assay: BIAcore affinity to PTmAb0005; assay type: binding; conditions: for Kd: read-out: PTmAb BIAcore KD^Rel (μM) PTmAb0005
Description: as §2, §3

Sequence | PTmAb Rank 0005 [1] | PTmAb Rank 0011 [2] | further results
ADGAGCFMNKQLADLEMCPRDDAEA [IgEC67-9] | 2.7 | 2.4 | 
ADGAGCFMNKQLADPELCPREAEEA [IgEC67-4] | 2.4 | 1.3 | 
ADGAGCFMNKQLVDLELCPRGAAEA [IgEC67-5] | 1.9 | 1.6 | 
ADGAGCFMNKQMADLELCPREAAEA [IgEC67-10] | 4.2 | 2.3 | 
ADGAGCFMNKQMADLELCPRTAAEA [IgEC67-1] | 4.1 | 2.2 | 
ADGAGCFMNKQMADWEMCPRAAAEA [IgEC67-11] | 1.8 | 1.9 | 
ADGAGCFMNKQQADLELCPRGAAEA [IgEC67-14] | 1.2 | 0.9 | 
ADGAGCFMNNQLADWELCPRAAAEA [IgEC67-6] | 1.9 | 1.6 | 
CLEDGQVMDVDCPREAAEGDK (disulfide 1-12 (inferred)) [PT1078, P1 mimotope] |  |  | binding of the peptide to PTmAb0011 compared with PT1079 [3]: reduced the binding; binding of the peptide to PTmAb0005 compared with PT1079 [4]: reduced the binding
GAMTAGQLSDLP [ESB25] |  |  | Kd [3]: > 1000 µM; Rank (ECL) PTmAb0005 [1]: 0; Kd [4]: 60 µM
KAGEQAMDMELR [ESB8] |  |  | Kd [3]: > 1000 µM; Rank (ECL) PTmAb0005 [1]: 0; Kd [4]: 257 µM
VAGGQVVDRELK [ESB10/38] |  |  | Kd [3]: > 1000 µM; Rank (ECL) PTmAb0005 [1]: 0; Kd [4]: 139 µM
